From patent US20260285873A1, “CYCLIC COMPOUNDS USED AS MULTI-TARGET KINASE INHIBITORS AND PREPARATION METHOD THEREFOR” (Shanghai Institute of Organic Chemistry, Chinese Academy of …, priority 2022, published 2026) come the findings set out here.

A short description of series [1]: Oral pharmacokinetic study in rats. Format: in vivo. The following applies: rat, brain, male SD rats, oral gavage, read-out: B/P (1 h). Here is the method: Drug preparation: 1% MC was added to the compound, ground, and shaken uniformly. Samples were collected at 5 min, 15 min, 30 min, 1 h, 2 h, 4 h, and 8 h post-dose, followed by analysis using liquid chromatography-tandem mass spectrometry (LC-MS/MS).

In series [2] the target is LRRK2 wt (Homo sapiens, UniProt Q5S007). As to the kind of experiment: Kinase activity inhibition assay (ADP-Glo), LRRK2 wt. The following applies: read-out: LRRK2 wt inhibition rate at 100 nM; compound at 100 nM. The class given is biochemical. Here is the method: The kinase activity inhibition assay was performed by ICE Bioscience (Beijing) using ADP-Glo and HTRF methods.
Chain of LRRK2 wt (Q5S007 whole entry): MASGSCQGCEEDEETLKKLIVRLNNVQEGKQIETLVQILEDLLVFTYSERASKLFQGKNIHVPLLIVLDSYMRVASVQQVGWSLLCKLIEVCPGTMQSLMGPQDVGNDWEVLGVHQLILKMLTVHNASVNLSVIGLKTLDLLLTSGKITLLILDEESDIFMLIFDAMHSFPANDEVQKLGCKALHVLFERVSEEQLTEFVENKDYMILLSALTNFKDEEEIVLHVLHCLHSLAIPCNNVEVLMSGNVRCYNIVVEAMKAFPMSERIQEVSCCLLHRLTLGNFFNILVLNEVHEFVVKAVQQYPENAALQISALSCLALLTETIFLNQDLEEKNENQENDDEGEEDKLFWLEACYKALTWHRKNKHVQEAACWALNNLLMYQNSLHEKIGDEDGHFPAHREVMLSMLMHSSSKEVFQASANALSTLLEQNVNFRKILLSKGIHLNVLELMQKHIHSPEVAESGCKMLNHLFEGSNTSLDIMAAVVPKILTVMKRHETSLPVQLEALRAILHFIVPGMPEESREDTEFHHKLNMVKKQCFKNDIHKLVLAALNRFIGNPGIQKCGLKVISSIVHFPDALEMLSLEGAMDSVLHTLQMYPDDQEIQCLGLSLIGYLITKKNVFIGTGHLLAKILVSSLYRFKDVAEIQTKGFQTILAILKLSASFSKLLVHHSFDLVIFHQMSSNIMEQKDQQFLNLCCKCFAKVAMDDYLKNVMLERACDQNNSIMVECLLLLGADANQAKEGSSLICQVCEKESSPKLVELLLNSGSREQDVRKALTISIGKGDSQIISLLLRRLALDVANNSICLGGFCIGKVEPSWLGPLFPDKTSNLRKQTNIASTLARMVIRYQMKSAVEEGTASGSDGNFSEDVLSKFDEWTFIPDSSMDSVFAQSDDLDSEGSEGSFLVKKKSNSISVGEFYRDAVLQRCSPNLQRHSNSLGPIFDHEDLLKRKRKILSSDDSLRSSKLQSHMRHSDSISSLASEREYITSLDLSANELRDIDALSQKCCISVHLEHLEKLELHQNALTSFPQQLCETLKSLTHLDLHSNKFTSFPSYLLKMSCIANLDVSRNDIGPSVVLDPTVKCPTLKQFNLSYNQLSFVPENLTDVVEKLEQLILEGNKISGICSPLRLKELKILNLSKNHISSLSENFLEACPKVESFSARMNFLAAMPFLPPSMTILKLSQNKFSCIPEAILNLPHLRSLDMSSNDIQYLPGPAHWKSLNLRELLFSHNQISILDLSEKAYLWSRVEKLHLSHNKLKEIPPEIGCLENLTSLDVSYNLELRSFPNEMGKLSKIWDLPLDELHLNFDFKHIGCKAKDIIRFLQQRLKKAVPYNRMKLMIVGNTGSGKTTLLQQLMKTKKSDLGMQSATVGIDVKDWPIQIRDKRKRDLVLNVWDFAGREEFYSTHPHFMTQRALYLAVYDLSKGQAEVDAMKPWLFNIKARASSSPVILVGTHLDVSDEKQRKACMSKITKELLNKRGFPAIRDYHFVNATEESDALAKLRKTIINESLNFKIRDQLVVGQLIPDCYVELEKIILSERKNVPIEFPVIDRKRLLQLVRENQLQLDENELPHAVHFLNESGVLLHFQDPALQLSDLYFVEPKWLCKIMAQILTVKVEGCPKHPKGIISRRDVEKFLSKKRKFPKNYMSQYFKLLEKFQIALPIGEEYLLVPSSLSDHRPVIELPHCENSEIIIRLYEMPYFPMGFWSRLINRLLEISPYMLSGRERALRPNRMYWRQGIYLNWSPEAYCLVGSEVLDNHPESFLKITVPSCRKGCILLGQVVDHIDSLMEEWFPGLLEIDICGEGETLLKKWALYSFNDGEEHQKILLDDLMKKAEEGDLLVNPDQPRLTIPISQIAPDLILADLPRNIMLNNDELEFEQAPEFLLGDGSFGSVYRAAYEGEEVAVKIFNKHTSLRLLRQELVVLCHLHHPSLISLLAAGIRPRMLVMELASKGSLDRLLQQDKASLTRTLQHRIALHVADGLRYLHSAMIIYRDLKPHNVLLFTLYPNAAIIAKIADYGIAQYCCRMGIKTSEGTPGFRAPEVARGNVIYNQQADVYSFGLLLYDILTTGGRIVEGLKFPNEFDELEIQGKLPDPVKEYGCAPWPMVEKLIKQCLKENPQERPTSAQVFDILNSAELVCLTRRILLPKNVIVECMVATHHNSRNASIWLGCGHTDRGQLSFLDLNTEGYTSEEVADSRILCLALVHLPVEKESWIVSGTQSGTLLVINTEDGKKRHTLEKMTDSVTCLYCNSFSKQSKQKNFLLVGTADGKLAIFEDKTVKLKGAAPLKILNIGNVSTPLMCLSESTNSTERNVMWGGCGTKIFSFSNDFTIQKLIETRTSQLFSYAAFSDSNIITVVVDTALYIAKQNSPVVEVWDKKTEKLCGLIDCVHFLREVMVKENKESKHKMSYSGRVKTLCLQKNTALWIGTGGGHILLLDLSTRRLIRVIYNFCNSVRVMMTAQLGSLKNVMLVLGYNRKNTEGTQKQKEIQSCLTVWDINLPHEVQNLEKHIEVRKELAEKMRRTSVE

Like-named read-outs stand apart in the source and are kept apart here.

For `Cc1nn2cc1Nc1ncc(C(F)(F)F)c(n1)NCCCNC(=O)C2(C)C` [Example T-1, (E)-3^3,4,4-Trimethyl-15-(trifluoromethyl)-3^1H-2,6,10-triaza-1(2,4)-pyrimidina-3(4,1)-pyrazolacyclodecan-5-one], the Kp at 1 h in series [1] (3 mg/kg, 3 mpk) was found to be 0.13.
Consider `Cc1nn2cc1Nc1ncc3c(Cl)cc(n3n1)CCCNC(=O)C2(C)C` [Example T-25, (1^1Z,3^4E)-1^5-Chloro-3^3,4,4-trimethyl-3^1H-2,6-diaza-1(2,7)-pyrrolo[2,1-f][1,2,4]triazine-3(4,1)-pyrazolacyclononan-5-one], for which the Kp at 1 h in series [1] (5 mg/kg, 5 mpk) came to 0.58.
As to `Cc1nn2cc1Nc1ncc(C(F)(F)F)c(n1)NC1CCCC(C1)NC(=O)C2(C)C` (stereo not drawn) [Example T-42, (5^3R,E)-1^3,8,8-Trimethyl-3^5-(trifluoromethyl)-1^1H-2,4,6-triaza-3(2,4)-pyrimidina-1(4,1)-pyrazola-5(1,3)-cyclohexacyclooctan-7-one], in series [2], the inhibition at 0.1 µM worked out at 42.1%.

A word on the inhibition: it is the change of the read-out against control, counted positive when it falls.
